Assay results from PMC6407913, “DREADD Agonist 21 Is an Effective Agonist for Muscarinic-Based DREADDs in Vitro and in Vivo” (ACS Pharmacology & Translational Science, 2018).
“And” between values parts separate entries of the source, which are not always exact repeats. Equal entries are not always repeated. Where two headings read alike, the source gives them in different places.

Legend:
Experiment in all cases: NIMH PDSP radioligand binding, membranes
5-HT1D = 5-HT1D (Homo sapiens, UniProt P28221)
Chain of 5-HT1D (P28221 whole entry, species assumed): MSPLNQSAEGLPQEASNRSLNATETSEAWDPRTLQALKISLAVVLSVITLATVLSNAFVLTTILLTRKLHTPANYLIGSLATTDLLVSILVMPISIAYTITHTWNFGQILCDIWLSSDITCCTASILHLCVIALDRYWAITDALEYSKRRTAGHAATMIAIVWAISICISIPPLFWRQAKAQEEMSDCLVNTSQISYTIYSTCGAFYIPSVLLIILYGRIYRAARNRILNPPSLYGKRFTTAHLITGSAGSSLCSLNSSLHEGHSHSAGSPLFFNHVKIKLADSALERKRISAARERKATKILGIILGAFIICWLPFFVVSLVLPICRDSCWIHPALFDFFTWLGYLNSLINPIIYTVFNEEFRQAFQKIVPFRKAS
Method: (§1) Radioligand binding assays with membrane preparations to determine binding affinity were carried out as outlined before[540] and by the National Institute of Mental Health’s Psychoactive Drug Screening Program (NIMH PDSP) (https://pdsp.unc.edu/), Contract # HHSN-271–2013–00017-C. The NIMH PDSP is Directed by B.L.R. at the University of North Carolina at Chapel Hill, Chapel Hill, NC, and Project Officer Jamie Driscoll at NIMH, Bethesda, MD.

5-HT1E = 5-HT1E (Homo sapiens, UniProt P28566)
Chain of 5-HT1E (P28566 whole entry, species assumed): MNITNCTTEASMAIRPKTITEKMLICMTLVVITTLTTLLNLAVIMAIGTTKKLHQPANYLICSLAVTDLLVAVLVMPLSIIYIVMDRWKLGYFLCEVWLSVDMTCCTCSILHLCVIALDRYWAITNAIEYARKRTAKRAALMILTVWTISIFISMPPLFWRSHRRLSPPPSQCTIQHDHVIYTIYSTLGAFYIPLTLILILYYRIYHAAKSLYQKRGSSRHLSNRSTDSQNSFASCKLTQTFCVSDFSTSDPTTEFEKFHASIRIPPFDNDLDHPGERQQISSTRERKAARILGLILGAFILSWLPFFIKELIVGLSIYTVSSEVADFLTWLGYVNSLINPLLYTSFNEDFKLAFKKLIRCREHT
Method: as §1

5-HT2B = 5-HT2B (Homo sapiens, UniProt P41595)
Chain of 5-HT2B (P41595 whole entry, species assumed): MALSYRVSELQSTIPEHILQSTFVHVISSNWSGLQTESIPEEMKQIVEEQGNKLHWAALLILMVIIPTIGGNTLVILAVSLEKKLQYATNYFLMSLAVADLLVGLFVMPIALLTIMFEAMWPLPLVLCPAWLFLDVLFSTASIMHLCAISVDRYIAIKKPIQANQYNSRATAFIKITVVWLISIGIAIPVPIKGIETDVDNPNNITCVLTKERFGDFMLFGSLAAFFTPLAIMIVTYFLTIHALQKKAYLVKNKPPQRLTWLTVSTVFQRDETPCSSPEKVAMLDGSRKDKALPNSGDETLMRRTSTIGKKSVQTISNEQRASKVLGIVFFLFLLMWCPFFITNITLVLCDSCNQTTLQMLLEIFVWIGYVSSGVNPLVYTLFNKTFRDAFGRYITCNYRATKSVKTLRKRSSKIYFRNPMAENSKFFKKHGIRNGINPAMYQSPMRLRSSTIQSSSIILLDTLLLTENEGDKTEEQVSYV
Method: as §1

5-HT4 = biological target: T1, 5-HT4 (Homo sapiens, UniProt Q13639)
T1 construct: NIMH PDSP
T1 sequence (Q13639 whole entry, species assumed): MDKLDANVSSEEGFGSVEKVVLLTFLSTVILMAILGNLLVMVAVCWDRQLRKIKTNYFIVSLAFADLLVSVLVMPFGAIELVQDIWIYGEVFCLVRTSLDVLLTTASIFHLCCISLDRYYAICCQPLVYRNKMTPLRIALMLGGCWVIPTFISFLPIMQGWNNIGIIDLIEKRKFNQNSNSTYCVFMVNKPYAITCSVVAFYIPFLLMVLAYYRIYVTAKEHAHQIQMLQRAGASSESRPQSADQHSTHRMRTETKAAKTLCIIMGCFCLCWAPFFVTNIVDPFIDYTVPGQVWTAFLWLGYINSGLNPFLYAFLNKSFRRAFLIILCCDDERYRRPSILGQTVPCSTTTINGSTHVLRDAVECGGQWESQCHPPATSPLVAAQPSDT
Method: as §1

Alpha 1B = biological target: T2, Alpha 1B (Homo sapiens, UniProt P35368)
T2 construct: NIMH PDSP
T2 sequence (P35368 1-520): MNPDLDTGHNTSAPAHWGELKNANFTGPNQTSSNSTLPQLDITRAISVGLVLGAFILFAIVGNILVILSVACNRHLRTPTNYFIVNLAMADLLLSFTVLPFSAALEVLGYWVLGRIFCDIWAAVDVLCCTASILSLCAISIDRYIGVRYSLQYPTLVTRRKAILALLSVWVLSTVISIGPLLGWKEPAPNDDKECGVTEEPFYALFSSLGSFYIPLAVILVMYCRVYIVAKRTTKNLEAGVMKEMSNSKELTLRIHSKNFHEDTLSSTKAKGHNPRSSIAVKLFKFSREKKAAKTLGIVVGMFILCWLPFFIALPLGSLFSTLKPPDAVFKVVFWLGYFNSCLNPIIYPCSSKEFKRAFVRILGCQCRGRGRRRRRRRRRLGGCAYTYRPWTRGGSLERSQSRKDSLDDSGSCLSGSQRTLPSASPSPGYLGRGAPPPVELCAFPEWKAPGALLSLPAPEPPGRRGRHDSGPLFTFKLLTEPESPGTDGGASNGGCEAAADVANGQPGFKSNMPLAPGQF
Method: as §1

Alpha1A = biological target: T3, Alpha1A (Homo sapiens, UniProt P35348)
T3 construct: NIMH PDSP
T3 sequence (P35348 1-466): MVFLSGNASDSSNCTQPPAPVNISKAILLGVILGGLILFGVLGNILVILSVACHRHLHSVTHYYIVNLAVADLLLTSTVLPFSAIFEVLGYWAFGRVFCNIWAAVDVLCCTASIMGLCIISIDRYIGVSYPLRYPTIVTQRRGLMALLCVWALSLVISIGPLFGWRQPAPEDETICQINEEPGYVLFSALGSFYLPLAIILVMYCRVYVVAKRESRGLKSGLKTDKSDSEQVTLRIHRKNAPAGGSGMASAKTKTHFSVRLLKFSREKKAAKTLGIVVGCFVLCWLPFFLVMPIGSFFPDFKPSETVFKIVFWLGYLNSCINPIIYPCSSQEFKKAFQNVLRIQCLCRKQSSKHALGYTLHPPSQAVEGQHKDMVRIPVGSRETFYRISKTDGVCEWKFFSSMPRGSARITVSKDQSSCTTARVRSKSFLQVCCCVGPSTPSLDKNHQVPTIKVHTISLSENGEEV
Method: as §1

Alpha1D = biological target: T4, Alpha1D (Homo sapiens, UniProt P25100)
T4 construct: NIMH PDSP
T4 sequence (P25100 1-572): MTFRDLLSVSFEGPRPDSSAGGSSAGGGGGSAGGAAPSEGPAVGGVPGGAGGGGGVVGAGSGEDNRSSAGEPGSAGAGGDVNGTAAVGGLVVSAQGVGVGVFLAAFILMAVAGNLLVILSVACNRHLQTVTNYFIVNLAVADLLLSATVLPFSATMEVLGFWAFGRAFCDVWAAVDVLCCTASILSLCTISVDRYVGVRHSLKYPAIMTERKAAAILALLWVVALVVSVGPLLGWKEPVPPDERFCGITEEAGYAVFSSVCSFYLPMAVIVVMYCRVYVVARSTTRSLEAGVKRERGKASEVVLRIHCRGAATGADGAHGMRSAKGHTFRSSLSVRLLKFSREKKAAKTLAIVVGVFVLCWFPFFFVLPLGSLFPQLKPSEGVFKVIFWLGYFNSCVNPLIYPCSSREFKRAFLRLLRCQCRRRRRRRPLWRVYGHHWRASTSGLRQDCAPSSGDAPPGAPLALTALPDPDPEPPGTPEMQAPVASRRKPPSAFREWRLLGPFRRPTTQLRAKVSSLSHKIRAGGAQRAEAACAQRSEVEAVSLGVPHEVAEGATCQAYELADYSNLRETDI
Method: as §1

Alpha2A = biological target: T5, Alpha2A (Homo sapiens, UniProt P08913)
T5 construct: NIMH PDSP
T5 sequence (P08913 whole entry): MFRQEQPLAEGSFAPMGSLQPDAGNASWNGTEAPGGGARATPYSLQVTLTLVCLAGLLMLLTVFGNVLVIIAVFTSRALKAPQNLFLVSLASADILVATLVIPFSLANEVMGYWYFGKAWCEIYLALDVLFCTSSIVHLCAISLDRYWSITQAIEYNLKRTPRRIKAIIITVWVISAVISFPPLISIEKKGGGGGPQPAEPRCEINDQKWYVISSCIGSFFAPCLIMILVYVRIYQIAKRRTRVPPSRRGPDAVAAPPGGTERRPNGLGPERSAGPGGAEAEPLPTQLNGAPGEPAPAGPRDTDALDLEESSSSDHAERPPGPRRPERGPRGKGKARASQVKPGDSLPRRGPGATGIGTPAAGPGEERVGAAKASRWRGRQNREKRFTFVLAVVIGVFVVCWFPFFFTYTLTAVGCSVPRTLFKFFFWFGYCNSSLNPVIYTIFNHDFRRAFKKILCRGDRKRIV
Method: as §1

BZP = biological target: BZP
Method: as §1

Beta1 = biological target: T6, Beta1 (Homo sapiens, UniProt P08588)
T6 construct: NIMH PDSP
Method: as §1

D1 = D1 (Homo sapiens, UniProt P21728)
Chain of D1 (P21728 whole entry): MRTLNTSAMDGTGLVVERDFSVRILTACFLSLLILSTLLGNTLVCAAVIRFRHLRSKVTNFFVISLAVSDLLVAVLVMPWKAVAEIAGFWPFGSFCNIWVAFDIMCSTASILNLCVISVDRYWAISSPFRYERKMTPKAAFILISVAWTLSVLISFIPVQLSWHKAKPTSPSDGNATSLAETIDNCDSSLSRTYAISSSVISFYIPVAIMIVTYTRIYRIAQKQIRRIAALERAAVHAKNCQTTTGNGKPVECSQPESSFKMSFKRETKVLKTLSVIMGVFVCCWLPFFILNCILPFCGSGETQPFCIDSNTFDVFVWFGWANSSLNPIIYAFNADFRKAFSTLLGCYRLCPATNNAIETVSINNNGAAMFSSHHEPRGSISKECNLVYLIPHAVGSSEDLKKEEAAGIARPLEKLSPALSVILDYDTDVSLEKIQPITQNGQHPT
Method: as §1

D3 = D3 (Homo sapiens, UniProt P35462)
Method: as §1

D4 = D4 (Homo sapiens, UniProt P21917)
Chain of D4 (P21917 whole entry): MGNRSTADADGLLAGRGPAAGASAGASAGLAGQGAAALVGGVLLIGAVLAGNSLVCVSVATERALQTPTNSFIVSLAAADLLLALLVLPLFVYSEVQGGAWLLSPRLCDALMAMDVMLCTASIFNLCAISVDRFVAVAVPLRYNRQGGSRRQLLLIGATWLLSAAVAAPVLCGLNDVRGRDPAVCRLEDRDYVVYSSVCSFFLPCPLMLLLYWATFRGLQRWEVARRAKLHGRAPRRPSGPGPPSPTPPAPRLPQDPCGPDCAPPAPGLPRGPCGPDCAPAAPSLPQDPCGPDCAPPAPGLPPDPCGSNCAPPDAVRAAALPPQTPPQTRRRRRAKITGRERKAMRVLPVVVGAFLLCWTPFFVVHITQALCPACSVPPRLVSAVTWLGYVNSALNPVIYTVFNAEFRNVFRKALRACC
Method: as §1

DOR = DOR (Homo sapiens, UniProt P41143)
Chain of DOR (P41143 whole entry): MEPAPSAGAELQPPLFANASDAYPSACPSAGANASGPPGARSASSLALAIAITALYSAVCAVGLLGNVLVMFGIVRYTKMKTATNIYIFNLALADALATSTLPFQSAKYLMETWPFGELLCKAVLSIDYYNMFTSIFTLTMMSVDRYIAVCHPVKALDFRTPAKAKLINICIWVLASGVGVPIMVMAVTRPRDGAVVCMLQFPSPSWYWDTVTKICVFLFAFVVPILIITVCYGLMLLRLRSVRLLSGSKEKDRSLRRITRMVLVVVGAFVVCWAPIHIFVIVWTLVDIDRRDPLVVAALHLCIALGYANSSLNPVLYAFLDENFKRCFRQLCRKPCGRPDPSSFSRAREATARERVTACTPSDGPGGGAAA
Method: as §1

M3 = M3 (Homo sapiens, UniProt P20309)
Chain of M3 (P20309 whole entry): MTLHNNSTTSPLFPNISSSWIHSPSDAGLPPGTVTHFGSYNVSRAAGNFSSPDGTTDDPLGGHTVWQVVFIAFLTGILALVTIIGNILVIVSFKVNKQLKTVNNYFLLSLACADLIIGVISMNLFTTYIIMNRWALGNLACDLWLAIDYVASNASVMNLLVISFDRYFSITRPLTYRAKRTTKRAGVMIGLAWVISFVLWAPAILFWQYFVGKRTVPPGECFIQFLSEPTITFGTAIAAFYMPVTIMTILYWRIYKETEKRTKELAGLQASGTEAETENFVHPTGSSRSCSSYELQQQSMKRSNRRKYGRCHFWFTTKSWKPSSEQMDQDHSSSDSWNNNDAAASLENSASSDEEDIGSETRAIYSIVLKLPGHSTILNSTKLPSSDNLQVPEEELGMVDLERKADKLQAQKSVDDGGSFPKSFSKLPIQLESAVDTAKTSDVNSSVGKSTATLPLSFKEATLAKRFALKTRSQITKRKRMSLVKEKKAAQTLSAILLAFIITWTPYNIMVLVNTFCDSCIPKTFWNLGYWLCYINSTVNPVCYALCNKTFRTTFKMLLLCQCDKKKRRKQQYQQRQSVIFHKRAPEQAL
Method: as §1

M5 = M5 (Homo sapiens, UniProt P08912)
Chain of M5 (P08912 whole entry): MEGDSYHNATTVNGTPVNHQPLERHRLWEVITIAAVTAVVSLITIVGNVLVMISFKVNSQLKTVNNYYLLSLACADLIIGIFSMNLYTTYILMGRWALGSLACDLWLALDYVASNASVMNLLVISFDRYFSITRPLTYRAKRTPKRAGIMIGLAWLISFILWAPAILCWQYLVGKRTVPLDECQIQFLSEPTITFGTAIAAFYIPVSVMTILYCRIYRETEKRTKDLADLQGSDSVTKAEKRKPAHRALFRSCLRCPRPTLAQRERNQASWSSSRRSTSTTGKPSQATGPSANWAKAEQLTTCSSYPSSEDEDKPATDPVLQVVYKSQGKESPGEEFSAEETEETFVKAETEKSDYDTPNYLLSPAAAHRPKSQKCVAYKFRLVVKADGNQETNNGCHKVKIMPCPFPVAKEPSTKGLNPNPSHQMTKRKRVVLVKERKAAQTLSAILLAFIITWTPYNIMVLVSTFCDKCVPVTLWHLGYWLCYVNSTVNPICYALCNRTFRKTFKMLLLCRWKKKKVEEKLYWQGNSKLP
Method: as §1

MOR = MOR (Homo sapiens, UniProt P35372)
Chain of MOR (P35372 whole entry): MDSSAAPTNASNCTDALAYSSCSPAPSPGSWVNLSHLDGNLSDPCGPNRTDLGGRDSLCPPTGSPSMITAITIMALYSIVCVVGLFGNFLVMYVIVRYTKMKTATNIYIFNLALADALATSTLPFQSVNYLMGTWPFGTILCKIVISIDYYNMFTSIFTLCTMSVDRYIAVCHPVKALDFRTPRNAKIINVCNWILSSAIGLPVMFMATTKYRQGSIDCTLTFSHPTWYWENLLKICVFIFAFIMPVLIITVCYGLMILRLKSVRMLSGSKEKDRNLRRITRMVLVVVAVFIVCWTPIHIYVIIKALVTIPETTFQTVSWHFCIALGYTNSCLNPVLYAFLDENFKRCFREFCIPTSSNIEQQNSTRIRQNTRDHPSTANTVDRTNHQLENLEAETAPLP
Method: as §1

[1] = read-out: Ki #1-#5 (individual assays)

## c1ccc2c(c1)N=C(N1CCNCC1)c1ccccc1N2 [C21, 11-(1-piperazinyl)-5H-dibenzo[b,e][1,4]diazepine]
5-HT1D; read-out: Ki
  Ki: 972 nM
5-HT1D; [1]
  Ki: 1190 nM and 785 nM and 983 nM
5-HT1E; read-out: Ki
  Ki: 206 nM
5-HT1E; [1]
  Ki: 325 nM and 263 nM and 68 nM and 117 nM and 547 nM
5-HT2B; read-out: Ki
  Ki: 32.7 nM
5-HT2B; read-out: log Ki (individual assays) (converted)
  Ki: 26.9 nM and 38 nM and 28.2 nM and 39.8 nM
5-HT2B; read-out: pKi (mean) (converted)
  Ki: 33.1 nM
5-HT4; read-out: Ki
  Ki: > 10000 nM
5-HT4; [1]
  Ki: > 10000 nM
Alpha 1B
  log Ki (individual assays): <5
Alpha 1B; read-out: Ki
  Ki: > 10000 nM
Alpha 1B; [1]
  Ki: > 10000 nM
Alpha1A
  log Ki (individual assays): <5
Alpha1A; read-out: Ki
  Ki: > 10000 nM
Alpha1A; [1]
  Ki: > 10000 nM
Alpha1D
  log Ki (individual assays): <5
Alpha1D; read-out: Ki
  Ki: > 10000 nM
Alpha1D; [1]
  Ki: > 10000 nM
Alpha2A; read-out: Ki
  Ki: 1770 nM
Alpha2A; [1]
  Ki: 4750 nM and 809 nM and 1440 nM
BZP
  log Ki (individual assays): 5.27 and 5.61 and 5.12 and 5.10 and 5.33
  pKi (mean): 5.29
BZP; read-out: Ki
  Ki: 5180 nM
BZP; [1]
  Ki: 4720 nM and 5310 nM and 2440 nM and 7610 nM and 7980 nM
Beta1; read-out: Ki
  Ki: > 10000 nM
Beta1; [1]
  Ki: > 10000 nM
D1; read-out: Ki
  Ki: 479 nM
D1; [1]
  Ki: 525 nM and 316 nM and 661 nM
D3; read-out: Ki
  Ki: 870 nM
D3; [1]
  Ki: 1520 nM and 1160 nM and 372 nM
D4; read-out: Ki
  Ki: 2050 nM
D4; [1]
  Ki: 1380 nM and 896 nM and 4050 nM and 3570 nM
DOR; read-out: Ki
  Ki: 387 nM
DOR; [1]
  Ki: 685 nM and 241 nM and 373 nM and 363 nM
M3; read-out: Ki
  Ki: 270 nM
M3; [1]
  Ki: 144 nM and 485 nM and 281 nM
M5; read-out: Ki
  Ki: 421 nM
M5; [1]
  Ki: 175 nM and 395 nM and 1080 nM
MOR; read-out: Ki
  Ki: 3880 nM
MOR; [1]
  Ki: 2230 nM and 4820 nM and 5430 nM
